{"source": "patent US20020127228A1", "about": "“PGT and apoptosis” (WELFIDE CORPORATION, priority 1998, published 2002)", "key": {"[1]": {"tested_on": "NRK52E cells", "assay": "Apoptosis induced by NO donor GSNO in NRK52E kidney cells", "type": "cell-based, rat", "details": "for Effect on apoptosis in kidney cells (in words): NO donor GSNO", "description": "1) Apoptosis was induced by NO (nitrogen monoxide) in kidney cells. NRK52E cells, which are established from a rat renal tubule epithelial cell line, mainly derived from distal were cultured for 24 hours with a chamber slide that was coated with type-I collagen. Afterwards, the cultured medium was changed to a serum-free medium, and apoptosis was induced by addition of NOC12 (0.4 mM) or S-nitroso L-glutathione (GSNO: 1 mM), which are NO donors.\n4) Inhibitory effect of PGE1 to the induction of apoptosis in kidney cells was investigated PGE1 was added simultaneously with the addition of a NO donor to a final concentration of 1 or 10 μM. After 24 hrs, cells were fixed with a 1% glutaraldehyde solution and stained with Hoechst 33342. Three visual fields were selected arbitrarily per slide, and the ratio of the cells count where nuclear fragmentation and condensation appeared was calculated with respect to the total cells in the field (magnification: 400x). The n was 5.\n5) The relationship between PGT inhibitors and kidney cell apoptosis induced by GSNO was examined. With a final concentration of BrCG, which is a PGT inhibitor, of 60 μM, manners other than simultaneous addition with GSNO and PGE1 were in accordance with the aforementioned ones in 4). The PGE1 final concentration was 1 μM. The n was 3.\n1) Drugs having suppressing activity on apoptosis inducted in kidney cells by an NO donor were investigated. PGK1 and bicyclo PGE2 were used as test drugs, but other manners were in accordance with Experiment 8. The final concentration of the test drugs was 1 μM. The n was 5.\n2) It was investigated the effects of a PGT inhibitor on the apoptosis-suppressing activity of PGK1 and bicyclo PGE2 in kidney cells. With a final concentration of BrCG, which is a PGT inhibitor, of 60 μM, manners other than simultaneous addition of GSNO and test drugs were in accordance with the aforementioned methods in 1). The n was 4."}, "[2]": {"biological_target": "T1, PGT (Rattus norvegicus, UniProt Q00910)", "T1 construct": "endogenous in cells; host or cells: differentiated PC12 cells", "assay": "Uptake of tritium-labelled PGE1 into differentiated PC12 cells through PGT", "type": "cell-based", "description": "1) Differentiated PC12 cells and tritium-labelled PGE1 (added concentration: 0.1 μM) were subjected to 10 mins of incubation at 37° C. Afterwards, the cells were washed with ice-cold phosphate buffered saline containing 5 g/l of bovine serum albumin and next washed with ice-cold phosphate buffered saline. Then, radioactivity was measured. The amount of PGE1 uptake into PC12 cells was calculated.\n2) Bromcresol green (hereinafter noted as “BrCG”), which is a PGT inhibitor, was placed together in the culture medium at the addition of PGE1. Afterwards, treatment was conducted in the same manner as mentioned in 1).\n3) The antisense oligonucleotide specific to PGT cDNA was designed as follows:\nMoreover, said antisense was thioate modified. Using Lipofectin (Gibco), PC12 underwent transfection during 2 days prior to the addition of PGE1. Afterwards, treatment was conducted in the same manner as mentioned in 1)."}, "[3]": {"tested_on": "rat cerebral cortical neurons", "assay": "Apoptosis induced by amyloid beta peptide in rat cerebral cortical neurons, Hoechst 33342", "type": "cell-based", "details": "for Inhibition of apoptosis induction (%): Experiment 7, test drug added with Aged-Aβ25-35", "description": "The cortex region of embryonic day 17 or 18 rat cerebrum was extracted on ice. Cells were dispersed using a neuron dispersal solution (Sumilon) after sectioning. Afterwards, cells were dispersed to a density of 1.5×10^5 cells/cm^2 in a culturing flask that was coated with polyethyleneimine beforehand. After 4 days of culturing, the following experiment was provided. Therefore, as the culture medium, Neurobasal medium (Gibco) adding with B27 supplement (1/50 volume), 2-mercaptoethanol (27.5 μM), L-glutamic acid (25 μM), and glutamine (0.5 mM) was used.\nAmyloid beta peptide 25-35 (Aβ25-35) was dissolved in distilled water to a concentration of 1 mM, incubated for 1 week at about 37° C., and Aged-Aβ25-35 was prepared. The induction of apoptosis in neuron was performed by the replacement of the aforementioned culture medium (with the exception of L-glutamicacid) containing 10 μM Aged-Aβ25-35.\n4) It was investigated that the suppressing effect of PGE1 on apoptosis induced by amyloid beta peptide. After dissolution of PGE1 in ethanol, when the aforementioned 2) Aged-Aβ25-35 was added to the culture medium, simultaneously PGE1 solution was added to it. The final concentration thereof was 1 μM.\nCells were washed with PBS (−) at 24 hrs after induction of apoptosis and fixed for 30 mins at room temperature using a 1% glutaraldehyde solution (in PBS). Next, cell were washed with PBS (−) two times and followed by incubation with 1 mM Hoechst 33342 solution (in PBS) for 2 mins. Afterwards, observation of nuclear chromatin morphology was conducted using a fluorescence microscope with 4 arbitrary visual fields. Normal cells and apoptotic cells (cell where chromatin fragmentation or condensation was appeared) were counted, and the ratio was calculated as the incidence of apoptosis. The n was 3.\n6) The relationship between PGT inhibitors and apoptosis induced by amyloid beta peptide was investigated. BrCG, which is a PGT inhibitor, with a final concentration of 60 μM was added simultaneously with PGE1 but other manners were in accordance with the aforementioned ones in 1)-5).\nIt was investigated that the influence of PGT antisense on the inhibitory effect of PGE1 against apoptosis induced by amyloid beta peptide. PGT antisense was used as it is with regard to the oligonucleotide in Experiment 3. The addition concentration thereof was 1.5 μM. Incidence of apoptosis was performed in accordance with Experiment 5. Then was 3.\n1) Drugs having an inhibitory activity against induction of apoptosis by amyloid beta peptide were investigated. After dissolving test drugs (PGE1, PGK1, PGK2, and bicyclo PGE2) in ethanol, when Aged-Aβ25-35 was added to the culture medium, simultaneously test drug solution were added to it. But other manners were in accordance with Experiment 5. Ratio of normal cells and apoptotic cells allowed calculation of the rate of inhibition of apoptosis induction."}, "[4]": {"tested_on": "SAPK/JNK", "assay": "SAPK/JNK activation in PC12 cells after NGF withdrawal, Western blot", "type": "cell-based, rat", "details": "added with PGE1", "description": "4) Intercellular signals via SAPK/JNK Stress-activated protein kinase/Jun N-terminal kinase (abbreviated SAPK/JNK) is associated with apoptosis induction. Thus, intercellular signals within cells via SAPK/JNK were investigated based upon effects with respect to variations in SAPK/JNK activity.\nThe present experiment was performed with Western blot analysis. Individual additives were added to cell culturing medium for PC12 cells in accordance with the aforementioned experiment. Culturing was performed for 1-4 hrs after withdrawal of NGF. PC12 cells were lysed with a buffer solution, centrifuged, and the supernatant of cell lysate was prepared. After said supernatant was incubated with JNK 1 polyclonal antibodies (Santa Cruz Biotechnology) at 4° C. for 1 hr. Protein A sepharose was added to it. The resultant was incubated for 1 hr and the immunoprecipitate as described below was provided. […] of cell lysate was conducted with SDS-PAGE electrophoresis, and transferred to a nylon membrane (Amersham Pharmacia Biotech). Blotting of phosphorylated (active) JNK antibodies (Santa Cruz Biotechnology) was performed with this membrane, and bands were detected in accordance with the instruction manual. Intercellular signals within cells were amplified by chemiluminescence and auto radioactivity methods (FCL, Amersham Pharmacia Biotech)."}, "[5]": {"assay": "Hypotensive effect in anesthetized normal rats, mean blood pressure", "type": "in vivo, rat", "set-up": "Decrease in blood pressure: unit not given here", "details": "for Decrease in blood pressure: 100 μg/kg body weight into caudal artery, mean blood pressure before and after, n 3; for Hypotensive effect (in words): dose that suppresses apoptosis sufficiently", "description": "2) The hypotensive effect of the test drugs was examined. After anesthetizing normal rats (male, body weight of about 300 g) with intraperitoneal administration of Nembutal, the dorsal region was fixed. Next, a cannula was inserted in the carotid artery and blood pressure was measured through a transducer (Nihon Kohden Corporation); simultaneous recording was made in combination with a polygraph (Nihon Kohden Corporation). After dissolving the test drugs in ethanol, and diluted (x200) with saline. Administration was given in the caudal artery in a dose of 100 μg/kg body weight. The mean blood pressure (MBP) was measured. The decrease in blood pressure was calculated from the measured values before and after administration. The n was 3 per group."}, "[6]": {"tested_on": "differentiated PC12 cells", "assay": "Induction of apoptosis by PGT antisense in differentiated PC12 cells, TUNEL staining", "type": "cell-based, rat", "description": "1) Rat adrenal pheochromocytoma PC12 cells (obtained by: ATCC; importer: Dainippon Pharmaceutical) was cultured in a Neurobasal culture medium containing mouse β NGF (100 ng/ml), N2 supplement (1%), and TIP (5 μg/ml transferrin, 5 μg/ml insulin, and 10 ng/ml progesterone). Differentiation of neuron was performed.\n2) Then, antisense solution prepared in Example 6 is added (final concentration: 600 nM) and cultured for 2 days. As a negative control, Lipofectin in alone is added in the same manner and cultured for the same period of time. Apoptosis detection is performed by TUNEL staining after cell fixation (room temperature for 30 min) with a 10% neutral formalin buffer solution. Observation was made from 6 arbitrary visual fields using a light microscope. Total cells and TUNEL (apoptosis)—positive cells were counted, and the incidence of apoptosis was calculated."}, "[7]": {"details": "Table 13, GSNO, test drug 1 μM, n 5"}, "[8]": {"details": "Tables 14 and 15, GSNO, test drug alone, n 4"}}, "note": "“Also recorded” adds a separate entry of the source."}
{"compound": "Cc1c(C2(c3cc(Br)c(O)c(Br)c3C)OS(=O)(=O)c3ccccc32)cc(Br)c(O)c1Br", "note": "[BrCG, Bromcresol green]", "values": [{"measurement": "Effect on apoptosis-suppressing activity of the test drug in kidney cells (in words)", "setting": "[1]; BrCG 60 μM, GSNO", "result": "inhibited apoptosis-suppressing activity by PGE1; also recorded: partially inhibited apoptosis-suppressing effect"}, {"measurement": "Amount of PGE1 uptake", "setting": "[2]; PGE1 0.1 μM with BrCG 1 μM", "result": "60 ± 15", "unit": "fmol/mg protein/10 mins"}, {"measurement": "Amount of PGE1 uptake", "setting": "[2]; PGE1 0.1 μM with BrCG 1 μM (second row, printed so)", "result": "20 ± 8", "unit": "fmol/mg protein/10 mins"}, {"measurement": "Effect on PGE1 inhibition of amyloid beta peptide-induced apoptosis (in words)", "setting": "[3]; BrCG 60 μM with PGE1", "result": "inhibited said effect of PGE1"}, {"measurement": "Effect on PGE1 suppression of SAPK/JNK activation (in words)", "setting": "[4]", "result": "inhibited PGE1-suppressing effect"}]}
{"compound": "CCCCC[C@H](O)/C=C/[C@H]1C(=O)CC(=O)[C@@H]1CCCCCCC(=O)O", "note": "[PGK1]", "values": [{"measurement": "Decrease in blood pressure", "setting": "[5]", "result": "−5"}, {"measurement": "Hypotensive effect (in words)", "setting": "[5]", "result": "substantially causes no decrease in blood pressure"}, {"measurement": "Effect on apoptosis in kidney cells (in words)", "setting": "[1]", "result": "suppressed apoptosis induced by GSNO in kidney cells"}, {"measurement": "Incidence of apoptosis (%)", "setting": "[1]; [7]", "result": "8 ± 1", "unit": "%"}, {"measurement": "Incidence of apoptosis (%)", "setting": "[1]; [8]", "result": "8 ± 1", "unit": "%"}, {"measurement": "Effect on apoptosis induced by amyloid beta peptide (in words)", "setting": "[3]", "result": "displayed activity to suppress apoptosis of neurons"}, {"measurement": "Inhibition of apoptosis induction (%)", "setting": "[3]", "result": 45.4, "unit": "%"}]}
{"compound": "CCCCC[C@H](O)/C=C/[C@H]1C(=O)CC(=O)[C@@H]1C/C=C\\CCCC(=O)O", "note": "[PGK2]", "values": [{"measurement": "Decrease in blood pressure", "setting": "[5]", "result": "+2"}, {"measurement": "Hypotensive effect (in words)", "setting": "[5]", "result": "substantially causes no decrease in blood pressure"}, {"measurement": "Effect on apoptosis induced by amyloid beta peptide (in words)", "setting": "[3]", "result": "displayed activity to suppress apoptosis of neurons"}, {"measurement": "Inhibition of apoptosis induction (%)", "setting": "[3]", "result": 36.2, "unit": "%"}]}
{"compound": "CCCCC1C(=O)CC[C@H]2[C@@H]1CC(=O)[C@@H]2C/C=C\\CCCC(=O)O", "note": "(stereo partly shown) [bicyclo PGE2]", "values": [{"measurement": "Decrease in blood pressure", "setting": "[5]", "result": 0}, {"measurement": "Hypotensive effect (in words)", "setting": "[5]", "result": "substantially causes no decrease in blood pressure"}, {"measurement": "Effect on apoptosis in kidney cells (in words)", "setting": "[1]", "result": "suppressed apoptosis induced by GSNO in kidney cells"}, {"measurement": "Incidence of apoptosis (%)", "setting": "[1]; [7]", "result": "6 ± 1", "unit": "%"}, {"measurement": "Incidence of apoptosis (%)", "setting": "[1]; [8]", "result": "9 ± 2", "unit": "%"}, {"measurement": "Effect on apoptosis induced by amyloid beta peptide (in words)", "setting": "[3]", "result": "displayed activity to suppress apoptosis of neurons"}, {"measurement": "Inhibition of apoptosis induction (%)", "setting": "[3]", "result": 40.6, "unit": "%"}]}
{"compound": "PGT antisense: antisense oligonucleotide specific to PGT, 5′-GGCTTGAGCAGGAGCCCCAT-3′, thioate modified, used with Lipofectin (all phosphorothioate, sugars by position and methylation of C not given here)", "values": [{"measurement": "Amount of PGE1 uptake", "setting": "[2]; PGE1 0.1 μM, antisense 0.5 μM transfected 2 days before", "result": "56 ± 17", "unit": "fmol/mg protein/10 mins"}, {"measurement": "Amount of PGE1 uptake", "setting": "[2]; PGE1 0.1 μM, antisense 1.5 μM transfected 2 days before", "result": "14 ± 14", "unit": "fmol/mg protein/10 mins"}, {"measurement": "TUNEL-positive cells (%)", "setting": "[6]; antisense 600 nM, cultured 2 days", "result": "12.9 ± 1.1", "unit": "%"}, {"measurement": "Induction of apoptosis (in words)", "setting": "[6]; antisense addition", "result": "apoptosis have been induced"}, {"measurement": "Effect on PGE1 suppression of SAPK/JNK activation (in words)", "setting": "[4]", "result": "inhibited PGE1-suppressing effect"}]}
